Experimental data: US7772228B2, “Method for treatment of bacterial infections with once or twice-weekly administered rifalazil” (priority 1998, dated 2010)
≈ marks a conversion by molar mass, not a printed value. Where two headings read alike, the source gives them in different places.

Columns and labels:
[1] = system: extracellular M. tuberculosis; conditions: cited from earlier work
[2] = system: M. tuberculosis in human macrophages; test: MIC and MBC against intracellular bacteria in human macrophages; format: cell-based, Mycobacterium tuberculosis
M. tuberculosis [3] = conditions: cited from earlier work
M. avium = test: Rabbit model of M. avium infection; format: in vivo; conditions: compared to controls
[4] = system: M. tuberculosis strain Erdman; conditions: cited from earlier work
[5] = human, in vivo
Protocol: The fourth trial (004) was a also a randomized, rising, double-blind, multiple-dose, placebo-controlled study. In this trial, weekly doses of placebo or rifalazil (25 mg or 50 mg) were administered to the subjects for a total of 4 weeks. All subjects received the dose within 30 minutes after eating a standardized breakfast and were monitored for an additional 14 days after the last dose. Four subjects were randomized to placebo, six subjects to 25 mg rifalazil, and eight subjects to 50 mg rifalazil.
Laboratory testing regimen for 003 and 004 trials was the same as for 001 and 002 trials.
Results obtained in 004 clinical trial where the healthy volunteers received only one dose a week for four weeks are seen in FIGS. 8-10.

[6] = Multiple-dose oral toxicology studies in rats; format: in vivo
Protocol: In chronic studies with dogs and rats, the no-observed-adverse-effect-level was 1000 mg/kg. […] Significant partitioning of drug-related radioactivity to the formed elements of the blood was observed. […] The urine contained a small amount (5.5%) of radioactivity.
Single-dose and multiple-dose oral toxicology studies were conducted in mice, rats, and dogs. In addition, to maximize systemic exposure, single-dose intravenous (IV) and intraperitoneal (IP) studies were conducted in rats and mice. Four-week and 13-week oral studies in dogs and rats and 26-week oral studies in rats included standard clinical measurements and physical and pathological evaluations.

M. tuberculosis [7] = conditions: cited from earlier work; remark: listed apart in the source
[8] = system: Chlamydia pneumoniae strain AR-39; test: Mouse model infected with Chlamydia pneumoniae; format: in vivo; conditions: intraperitoneal 1 mg/kg QID for three days; five days after cessation
Protocol: Sensitivity testing was conducted in cell cultures against Chlamydia pneumoniae strain TW-l 83 using rifalazil, clanthromycin, or azithromycin. […] The in vivo testing of rifalazil used a mouse model infected with Chlamydia pneumoniae strain AR-39. […] All control animals remained infected.

[9] = system: M. tuberculosis in human macrophages; conditions: intracellular, cited from earlier work
[10] = Ref. 1, BACTEC, 30 strains (rif^r and rif^s)
[11] = Ref. 2, BACTEC, 24 strains (rif^r and rif^s)
[12] = Ref. 3, BACTEC, 13 strains (rif^s)
[13] = Ref. 4, BACTEC, 11 strains (rif^r)
[14] = Ref. 5, BACTEC, 20 strains (rif^s)
[15] = thirty clinical isolates, BACTEC

In the case of `CO[C@H]1/C=C/O[C@@]2(C)Oc3c(C)c(O)c4c(=O)c(c5oc6cc(N7CCN(CC(C)C)CC7)cc(O)c6nc-5c4c3C2=O)NC(=O)/C(C)=C\C=C\[C@H](C)[C@H](O)[C@@H](C)[C@@H](O)[C@@H](C)[C@H](OC(C)=O)[C@@H]1C` [Rifalazil, 3′-hydroxy-5′-(4-isobutyl-1-piperazinyl)benzoxasinorifamycin], the MBC ([1]; strain Atencio) is given as 8 ng/mL (≈ 8.5 nM), the MIC ([1]; strain Atencio) is given as 1 ng/mL (≈ 1.06 nM) and the MBC ([1]; strain Erdman) is given as 4 ng/mL (≈ 4.25 nM). The MIC ([1]; strain Erdman) was 2 ng/mL (≈ 2.13 nM), the MBC ([1]; strain H37Rv) was 31 ng/mL (≈ 32.9 nM) and the MIC ([1]; strain H37Rv) was 8 ng/mL (≈ 8.5 nM). The “MIC and MBC fold lower than rifampin” value [2] was “at least 10 fold”, the MIC90 (M. tuberculosis [3]; [10]) was 2000 ng/mL (≈ 2130 nM) and the “MIC Range” value (M. tuberculosis [3]; [10]) was “≦0.002 to 4.0^ μg/mL”. For the same molecule, the MIC90 (M. tuberculosis [3]; [11]) was 4000 ng/mL (≈ 4250 nM), the “MIC Range” value (M. tuberculosis [3]; [11]) was 0.9 to 4000 ng/mL and the MIC90 (M. tuberculosis [3]; [12]) was 15.6 ng/mL (≈ 16.6 nM). The “MIC Range” value (M. tuberculosis [3]; [12]) was 0.9 to 125 ng/mL, the MIC90 (M. tuberculosis [3]; [13]) was 4000 ng/mL (≈ 4250 nM) and the “MIC Range” value (M. tuberculosis [3]; [13]) was 62 to 4000 ng/mL. For the same molecule, the MIC90 (M. tuberculosis [3]; [14]) was under 125 ng/mL, the “MIC Range” value (M. tuberculosis [3]; [14]) was under 125 ng/mL and the MIC90 (M. tuberculosis [3]; Ref. 6, BACTEC, 20 strains (rif^r)) was over 2000 ng/mL. The MIC (M. tuberculosis [3]; reference strain H37Rv, BACTEC) was 4 ng/mL (≈ 4.25 nM), the MIC (M. tuberculosis [3]; reference strain Kurono, BACTEC) was 2 ng/mL (≈ 2.13 nM) and the MIC90 (M. tuberculosis [3]; rifampin-sensitive Mycobacterium tuberculosis) was 15.6 ng/mL (≈ 16.6 nM). The “MIC50 50% inhibition” value (M. tuberculosis [3]; [15]) was 16 ng/mL (≈ 17 nM), the “MIC90 90% inhibition” value (M. tuberculosis [3]; [15]) was 2000 ng/mL (≈ 2130 nM) and the “bacterial load on organs” value (M. avium) was “reduced the bacterial load on organs compared to controls”. For the same molecule, the “reduction of bacterial load in lungs and spleens, comparison of drugs” value ([4]; 20 mg/kg, five times per week for four weeks) was “reduced bacterial loads to a significantly greater extent than the other two drugs”, the “activity against organisms in lungs, comparison of treatments” value ([4]; four weeks treatment) was “most active single-agent” and the “cell counts in lungs compared to early controls” value ([4]; four weeks treatment) was “significantly reduced cell counts in lungs”. For the same molecule, the “cell counts in lungs compared to late controls” value ([4]; four weeks treatment) was “reduced cell counts in lungs”, the “CFUs in the spleen” value ([4]; rifalazil 20 mg/kg, PZA 150 mg/kg, four weeks) was “most active single-agent” and the “time for hematologic parameters to return to normal after the last dose” value [5] was at most 14 days. For the same molecule, the “doses with dose-related lymphocytic depletion in the spleens” value ([6]; 26-week study) was over 30 mg/kg/day, the no-observed-adverse-effect-level ([6]; chronic studies, rats) was 1000 mg/kg and the “doses at which hematological changes were noted” value ([6]; multiple-dose oral, rats) was over 30 mg/kg. For the same molecule, the “lesions in the lung” value (M. tuberculosis [7]; 10 mg/kg six times a week) was “no lesions observed in the lung”, the “reduction of log CFU in lungs” value (M. tuberculosis [7]; 10 mg/kg six times a week) was “about 80%” and the “reduction of the bacteria” value (M. tuberculosis [7]; Twice-a-week or once-a-week administration) was “about 35%”. The “reduction in CFU” value (M. tuberculosis [7]; once-a-week administration of these very high dosages) was “about 42%”, the “Chlamydia pneumoniae in the lungs” value [8] was “not detectable” and the MBC ([9]; strain Atencio) was 8 ng/mL (≈ 8.5 nM). The MIC ([9]; strain Atencio) was 4 ng/mL (≈ 4.25 nM), the MBC ([9]; strain Erdman) was 8 ng/mL (≈ 8.5 nM) and the MIC ([9]; strain Erdman) was 8 ng/mL (≈ 8.5 nM). For the same molecule, the MBC ([9]; strain H37Rv) was 16 ng/mL (≈ 17 nM) and the MIC ([9]; strain H37Rv) was 4 ng/mL (≈ 4.25 nM).
